Data published in patent publication US11192850B2, “N-aryl oxamic acids” (Purdue Research Foundation, priority 2020, dated 2021).
Where two headings read alike, the source gives them in different places.

Experiments:
PTP1B = PTP1B (Homo sapiens (Human), UniProt P18031); assay: pNPP inhibition assay against PTP1B; assay type: biochemical; conditions: pNPP at Km of the PTP
SHP2 = SHP2 (Homo sapiens (Human), UniProt Q06124); assay: pNPP inhibition assay against SHP2; assay type: biochemical; conditions: pNPP at Km of the PTP
SHP1 = SHP1 (Homo sapiens (Human), UniProt P29350); assay: pNPP inhibition assay against SHP1; assay type: biochemical; conditions: pNPP at Km of the PTP
mPTPB = mPTPB (Mycobacterium tuberculosis (strain ATCC 25618 / H37Rv), UniProt I6WXK4); assay type: biochemical
[1] = Mouse liver microsomal stability; assay type: in vitro ADME; conditions: Mouse, after 60 min at 37° C.
Excerpt: A sufficient oral dosage must survive first-pass clearance through the liver before reaching its biological target. The majority of drugs/xenobiotics undergo phase I metabolism, mediated by the cytochrome P450 (CYP450) family of heme-thiolate proteins predominantly in the liver. Although mouse liver microsomal (MLM) stability studies are not a perfect substitute for in vivo metabolic clearance studies, but they serve as an initial […] model system that can correlate well with human liver microsomal (HLM) stability and in vivo activity in mice. To this end, compounds 4h, 4k, 4t, 4u, and 4v were allowed to react with mouse liver microsomes and the fraction of remaining parent compound over time was determined. […] Incorporation of fluorine into drug candidates generally improves their potency, bioavailability, and metabolic stability. In addition, fluorinated molecules are in general, nontoxic and mimic the corresponding nonfluorinated analogs in their stereoelectronic properties, so the drug's affinity for the receptor either remains the same or, in some cases increases. […] So, the loss of compounds tested here is attributed only to oxidative Phase I metabolism. The high microsomal stability of these compounds could be exploited pharmacologically.
Mouse (CD-1) pooled liver microsomes purchased from Fisher Scientific, IL, USA (0.5 mg/mL, Corning Gentest 3P, cat#452702), and the assay procedures were followed as previously reported. A solution of mouse liver microsomes and 1 mM of co-factor NADPH in 1 ml of phosphate buffer saline (pH=7.4) was prewarmed to 37° C. in an Eppendorf tube. Then 10 μL of a test solution (10 mM DMSO stock) was added to initiate the reaction. Verapamil-HCl was used as a positive control. […] The incubation mixture was kept at 37° C., and 50 μL aliquots were taken at times of 0, 5, 10, 15, 30 or 60 min. Each of the aliquot was quenched using 200 μL of ice-cold acetonitrile. The mixtures were vigorously vortexed and centrifuged to remove the precipitated protein and the supernatants were analyzed by an Agilent Technologies 6470 series, triple quadrupole LC/MS spectrometer to quantitate the remaining parent compound. The percent of the parent compound remaining was calculated from the formula: % parent compound remaining=(concentration at 60 min/concentration at 0 min)*100

[2] = pNPP assay, pH 7.0, 3.0 mM pNPP

SHP1, sequence (P29350 244-515): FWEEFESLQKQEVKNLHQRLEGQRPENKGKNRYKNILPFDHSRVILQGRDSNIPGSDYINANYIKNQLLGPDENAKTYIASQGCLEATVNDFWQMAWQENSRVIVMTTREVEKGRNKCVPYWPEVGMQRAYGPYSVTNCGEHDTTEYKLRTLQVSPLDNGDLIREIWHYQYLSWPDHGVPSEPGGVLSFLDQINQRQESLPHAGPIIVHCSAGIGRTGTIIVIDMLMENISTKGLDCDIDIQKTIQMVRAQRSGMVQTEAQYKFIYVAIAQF
SHP2, sequence (Q06124 247-517): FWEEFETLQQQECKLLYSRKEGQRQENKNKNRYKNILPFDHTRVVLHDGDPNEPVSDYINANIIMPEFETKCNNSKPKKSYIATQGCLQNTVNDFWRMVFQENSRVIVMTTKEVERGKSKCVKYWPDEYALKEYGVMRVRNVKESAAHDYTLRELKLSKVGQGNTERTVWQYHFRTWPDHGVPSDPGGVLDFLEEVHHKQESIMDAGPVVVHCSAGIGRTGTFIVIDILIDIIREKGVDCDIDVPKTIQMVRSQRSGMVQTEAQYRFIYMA
PTP1B, sequence (P18031 3-277): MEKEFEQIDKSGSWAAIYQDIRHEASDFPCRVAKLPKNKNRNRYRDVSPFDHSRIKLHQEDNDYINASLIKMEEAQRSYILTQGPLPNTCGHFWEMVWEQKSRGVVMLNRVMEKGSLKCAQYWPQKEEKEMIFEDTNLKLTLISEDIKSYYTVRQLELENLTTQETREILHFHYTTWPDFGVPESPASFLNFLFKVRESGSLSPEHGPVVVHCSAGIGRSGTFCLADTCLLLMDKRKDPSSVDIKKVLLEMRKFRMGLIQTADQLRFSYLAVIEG
mPTPB, sequence (I6WXK4 whole entry, looked up): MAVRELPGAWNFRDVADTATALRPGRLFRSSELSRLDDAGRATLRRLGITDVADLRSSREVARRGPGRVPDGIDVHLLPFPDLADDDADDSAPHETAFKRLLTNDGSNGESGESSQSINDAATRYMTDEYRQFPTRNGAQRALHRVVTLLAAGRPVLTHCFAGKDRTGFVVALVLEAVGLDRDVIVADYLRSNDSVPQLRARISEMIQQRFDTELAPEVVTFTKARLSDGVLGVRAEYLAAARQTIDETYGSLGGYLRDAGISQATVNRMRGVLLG

Row | SMILES | IC50 (PTP1B) [µM] | IC50 (SHP2) [µM] | IC50 (SHP1) [µM] | IC50 (mPTPB) [µM] | fold more potency compared to the meta derivative 5 (mPTPB) [fold] | IC50 (mPTPB; [2]) [µM] | difference in IC50 values with and without Triton X-100 and with preincubation (mPTPB) | Microsome Stability, % remaining [1] [%] | fold less potency compared to corresponding alkyne analogs 4 and 4k (mPTPB) [fold]
1 | O=C(O)C(=O)Nc1ccccc1 [Compound 1, Oxanilic Acid] | > 100 | > 100 | – | – | – | – | – | – | –
2 | C#Cc1ccc(NC(=O)C(=O)O)cc1 [Compound 2, 2-((4-ethynylphenyl)amino)-2-oxoacetic Acid] | > 100 | > 100 | – | – | – | – | – | – | –
3 | CC(C)(C)OC(=O)NCC#Cc1ccc(NC(=O)C(=O)O)cc1 [Compound 3, 2-((4-(3-((tert-butoxycarbonyl)amino)prop-1-yn-1-yl)phenyl)amino)-2-oxoacetic Acid] | > 100 | 58 ± 2 | – | – | – | – | – | – | –
4 | O=C(O)C(=O)Nc1ccc(C#Cc2ccccc2)cc1 [Compound 4, 2-oxo-2-((4-(phenylethynyl)phenyl)amino)acetic Acid] | > 100 | > 100 | > 100 | 0.257 ± 0.008 | 2 | – | – | – | –
5 | COC(=O)c1ccc(C#Cc2ccc(NC(=O)C(=O)O)cc2)cc1 [Compound 4a, 2-((4-((4-(methoxycarbonyl)phenyl)ethynyl)phenyl)amino)-2-oxoacetic Acid] | > 100 | 52.6 ± 6.4 | > 100 | – | – | 0.023 ± 0.004 | – | – | –
6 | COC(=O)c1cc(C#Cc2ccc(NC(=O)C(=O)O)cc2)ccc1O [Compound 4b, 2-((4-((4-hydroxy-3-(methoxycarbonyl)phenyl)ethynyl)phenyl)amino)-2-oxoacetic Acid] | > 50 | 27.3 ± 3.3 | > 50 | – | – | 0.025 ± 0.003 | – | – | –
7 | COC(=O)c1ccc(C#Cc2ccc(NC(=O)C(=O)O)cc2)cc1O [Compound 4c, 2-((4-((3-hydroxy-4-(methoxycarbonyl)phenyl)ethynyl)phenyl)amino)-2-oxoacetic Acid] | > 50 | > 50 | > 50 | – | – | – | – | – | –
8 | COC(=O)c1cc(C#Cc2ccc(NC(=O)C(=O)O)cc2)c(N(C)C)cc1O [Compound 4d, 2-((4-((2-(dimethylamino)-4-hydroxy-5-(methoxycarbonyl)phenyl)ethynyl)phenyl)amino)-2-oxoacetic Acid] | > 50 | > 50 | > 50 | – | – | 0.03 ± 0.009 | – | – | –
9 | COC(=O)c1cc(C#Cc2cccc(NC(=O)C(=O)O)c2)c(N(C)C)cc1O [Compound 4e, 2-((3-((2-(dimethylamino)-4-hydroxy-5-(methoxycarbonyl)phenyl)ethynyl)phenyl)amino)-2-oxoacetic Acid] | > 50 | > 50 | > 50 | – | – | – | – | – | –
10 | CN(C)c1cc(O)c(C(=O)O)cc1C#Cc1ccc(NC(=O)C(=O)O)cc1 [Compound 4f, 5-((4-(carboxyformamido)phenyl)ethynyl)-4-(dimethylamino)-2-hydroxybenzoic Acid] | > 100 | 78.5 ± 4.2 | 59.3 ± 6 | – | – | 0.09 ± 0.008 | – | – | –
11 | O=C(O)C(=O)Nc1ccc(C#Cc2ccc(OC(F)(F)F)cc2)cc1 [Compound 4i, 2-oxo-2-((4-((4-(trifluoromethoxy)phenyl)ethynyl)phenyl)amino)acetic Acid] | > 50 | > 50 | > 50 | – | – | – | – | – | –
12 | O=C(O)C(=O)Nc1ccc(C#Cc2cccc(C(F)(F)F)c2)cc1 [Compound 4j, 2-oxo-2-((4-((3-(trifluoromethyl)phenyl)ethynyl)phenyl)amino)acetic Acid] | 29.5 ± 4.1 | > 50 | > 50 | – | – | – | – | – | –
13 | NS(=O)(=O)c1ccc(C#Cc2ccc(NC(=O)C(=O)O)cc2)cc1 [Compound 4l, 2-oxo-2-((4-((4-sulfamoylphenyl)ethynyl)phenyl)amino)acetic Acid] | > 50 | > 50 | 29.9 ± 3.3 | – | – | – | – | – | –
14 | O=C(O)C(=O)Nc1ccc(C#Cc2ccc(O)cc2)cc1 [Compound 4m, 2-((4-((4-hydroxyphenyl)ethynyl)phenyl)amino)-2-oxoacetic Acid] | > 50 | > 50 | > 50 | – | – | – | – | – | –
15 | O=C(O)C(=O)Nc1ccc(C#Cc2ccc(O)c(Br)c2)cc1 [Compound 4n, 2-((4-((3-bromo-4-hydroxyphenyl)ethynyl)phenyl)amino)-2-oxoacetic Acid] | > 50 | 44.5 ± 3.4 | > 50 | – | – | – | – | – | –
16 | N#Cc1ccc(C#Cc2ccc(NC(=O)C(=O)O)cc2)cc1 [Compound 4o, 2-((4-((4-cyanophenyl)ethynyl)phenyl)amino)-2-oxoacetic Acid] | > 50 | > 50 | > 50 | – | – | – | – | – | –
17 | O=C(O)C(=O)Nc1ccc(C#Cc2cc(C(F)(F)F)cc(C(F)(F)F)c2)cc1 [Compound 4p, 2-((4-((3,5-bis(trifluoromethyl)phenyl)ethynyl)phenyl)amino)-2-oxoacetic Acid] | > 50 | > 50 | > 50 | 0.06 ± 0.009 | – | – | no significant difference | – | –
18 | CC(C)(C)OC(=O)Nc1ccc(C#Cc2ccc(NC(=O)C(=O)O)cc2)cc1 [Compound 4s, 2-((4-((4-((tert-butoxycarbonyl)amino)phenyl)ethynyl)phenyl)amino)-2-oxoacetic Acid] | > 50 | > 50 | > 50 | – | – | – | – | – | –
19 | O=C(O)C(=O)Nc1ccc(C#Cc2ccc(C(F)(F)F)cc2Br)cc1 [Compound 4u, 2-((4-((2-bromo-4-(trifluoromethyl)phenyl)ethynyl)phenyl)amino)-2-oxoacetic Acid] | 16.4 ± 2.9 | 15.2 ± 3.4 | 33.8 ± 6.8 | – | – | – | – | 60 ± 3.8 | –
20 | O=C(O)C(=O)Nc1ccc(C#Cc2ccc(C(F)(F)F)cc2F)cc1 [Compound 4v, 2-((4-((2-fluoro-4-(trifluoromethyl)phenyl)ethynyl)phenyl)amino)-2-oxoacetic Acid] | > 30 | > 30 | > 30 | – | – | – | – | 72 ± 2.8 | –
21 | N#Cc1cc(C(F)(F)F)ccc1C#Cc1ccc(NC(=O)C(=O)O)cc1 [Compound 4w, 2-((4-((2-cyano-4-(trifluoromethyl)phenyl)ethynyl)phenyl)amino)-2-oxoacetic Acid] | 27.4 ± 6.3 | 10.6 ± 2.5 | 13.7 ± 3.1 | – | – | – | – | – | –
22 | O=C(O)C(=O)Nc1ccc(C#Cc2ccc(C(F)(F)F)cc2C(F)(F)F)cc1 [Compound 4x, 2-((4-((2,4-bis(trifluoromethyl)phenyl)ethynyl)phenyl)amino)-2-oxoacetic Acid] | > 30 | > 30 | > 30 | – | – | – | – | – | –
23 | O=C(O)C(=O)Nc1cccc(C#Cc2ccccc2)c1 [Compound 5, 2-oxo-2-((3-(phenylethynyl)phenyl)amino)acetic Acid] | > 100 | 69 ± 4 | – | – | – | – | – | – | –
24 | O=C(O)C(=O)Nc1ccc(-c2ccccc2)cc1 [Compound 6, 2-([1,1′-biphenyl]-4-ylamino)-2-oxoacetic Acid] | 62 ± 5 | 29 ± 8 | – | – | – | – | – | – | –
25 | O=C(O)C(=O)Nc1cccc(-c2ccccc2)c1 [Compound 7, 2-([1,1′-biphenyl]-3-ylamino)-2-oxoacetic Acid] | > 100 | > 100 | – | – | – | – | – | – | –
26 | O=C(O)C(=O)Nc1cnc2ccccc2c1 [Compound 8, 2-oxo-2-(quinolin-3-ylamino)acetic Acid] | > 100 | > 100 | – | – | – | > 10 | – | – | –
27 | O=C(O)C(=O)Nc1ccc(/C=C\c2ccccc2)cc1 [Compound 9, (Z)-2-oxo-2-((4-styrylphenyl)amino)acetic Acid] | > 30 | > 30 | – | 0.77 ± 0.015 | – | – | – | – | 3
28 | O=C(O)C(=O)Nc1ccc(/C=C\c2ccc(C(F)(F)F)cc2)cc1 [Compound 10, (Z)-2-oxo-2-((4-(4-(trifluoromethyl)styryl)phenyl)amino)acetic Acid] | > 30 | > 30 | – | 0.684 ± 0.025 | – | – | – | – | 45
29 | O=C(O)C(=O)Nc1ccc(CCc2ccccc2)cc1 [Compound 11, 2-oxo-2-((4-phenethylphenyl)amino)acetic Acid] | > 30 | > 30 | – | 1.27 ± 0.2 | – | – | – | – | 5
30 | O=C(O)C(=O)Nc1ccc(CCc2ccc(C(F)(F)F)cc2)cc1 [Compound 12, 2-oxo-2-((4-(4-(trifluoromethyl)phenethyl)phenyl)amino)acetic Acid] | > 30 | > 30 | – | 0.197 ± 0.013 | – | – | – | – | 13
